Assays:
[1] = biological target: T1, BCAT2 (Homo sapiens, UniProt O15382); test: BCAT2 cell inhibition using engineered A549 cells (MUT KO, BCAT1 KO; 13C6-KMV formation by LC-MS/MS); assay type: cell-based; design: expressed endogenous BCAT2; endogenous in cells; host or cells: A549 cells, MUT knockout and BCAT1 knockout
T1 sequence (O15382 28-392): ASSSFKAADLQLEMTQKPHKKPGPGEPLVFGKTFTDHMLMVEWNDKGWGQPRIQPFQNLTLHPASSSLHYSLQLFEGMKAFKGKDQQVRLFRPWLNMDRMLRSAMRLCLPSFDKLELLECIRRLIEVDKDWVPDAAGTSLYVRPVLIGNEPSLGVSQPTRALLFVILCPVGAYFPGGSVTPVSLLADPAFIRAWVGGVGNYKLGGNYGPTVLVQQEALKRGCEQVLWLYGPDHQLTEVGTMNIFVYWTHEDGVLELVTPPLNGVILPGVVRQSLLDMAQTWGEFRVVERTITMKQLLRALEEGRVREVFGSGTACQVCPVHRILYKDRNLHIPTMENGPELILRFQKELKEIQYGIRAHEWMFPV
Source text: Endogenous Methylmalonyl-CoA Mutase (MUT) and Branched Chain Aminotransferase 1 (BCAT1) in A549 cells was knocked out by CRISPR/CAS9 using the targeting system from TransOMIC Technologies. The following guide sequence was cloned into pCLIP-ALL-EFS-Blast vector to target human MUT: […] (SEQ ID NO: 35). The following guide sequence was cloned into pCLIP-ALL-EFS-Puro vector to target human BCAT1: […] (SEQ ID NO: 36). The resulting plasmids were co-transfected into 293T cells with VSV-G, P-PEX, and Fugene-6. Lentivirus was harvested and A549 cells were first transduced with lentivirus targeting MUT and polybrene. After genetic selection with blasticidin clonal selection was performed and validated via western blot analysis to confirm MUT was no longer expressed. These MUT KO cells were then transduced with lentivirus targeting BCAT1 and polybrene. After selection with puromycin clonal selection was performed and clones were validated via western blot analysis to confirm BCAT1 was no longer expressed in these cells. The result was an engineered A549 cell line that expressed endogenous BCAT2.
For KMV cell assays, on day 1, 25,000 cells/100 μL EMEM (10% FBS) were seeded in each well of a 96-well plate. On day 2, medium was replaced with 50 μL fresh EMEM (10% dialyzed FBS) containing 2× the assay concentration of experimental compound. After 15 minutes, 50 μL of 800 uM ^15N,^13C6-Isoleucine in EMEM (10% dialyzed FBS) was added to each well and incubated for 24 hours. On day 3, 50 μL of media from each well was collected and transferred to another 96-well plate for ^13C6-3-Methyl-2-Oxopentanoic Acid (KMV) analysis via LC-MS/MS. In the remaining assay wells 50 μL of Promega Glo CTG reagent was added and luminescence was measured as a cell viability readout.
For LC-MS/MS analysis 5 μL of cell assay media from each well was transferred to a 96-well plate and 45 μL of ACN:0.1% NaOH (50:50, v/v)^+0.20 nM d8-KMV was added and mixed on a shaker. 15 μL was transferred to a new 96-well plate and 15 μL of 10 mg/mL PFBHA solution was added and mixed on the shaker. The reaction was placed on ice for 30 minutes and quenched with 10 μL of ACN: Acetone (50:50, v/v) on a shaker. The resulting mixture was diluted with 100 μL of ACN:0.1% NaOH (50:50, v/v) on a shaker. 10 μL of sample were injected on the Shimadzu 20AD LC-MS/MS to quantify ^13C6-KMV.
Where a compound was tested multiple times, the average value of the tests is reported.

[2] = biological target: T1, BCAT2; test: BCAT2 in vitro enzyme inhibition assay (hBCAT2, glutamate dehydrogenase/diaphorase/resazurin coupled fluorescence read); assay type: biochemical; details: hBCAT2, 1 h preincubation at 25° C., one hour reaction; average where tested multiple times
In short: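 hBCAT2 (0.33 μg/mL in mix) preincubated 1 h at 25 °C with compound (top 100 μM, 3-fold, 10 points) in Tris pH 8.0/NaCl/BSA; substrate mix added (L-leucine, α-ketoglutarate, GDH, NAD, diaphorase, resazurin), quenched with SDS after 1 h, fluorescence Ex 540/Em 590; duplicates, repeat tests averaged.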

[3] = read-out: BCAT2 Cell Inhibition (IC50), engineered A549 cells, 24 hours, 13C6-KMV in media, average where tested multiple times

IC50 [1] [nM]	IC50 [2] [nM]	IC50 [1, 3] [nM]	Compound
< 100	< 100		O=C1c2c(ccc(F)c2F)CN1[C@H]1CCC[C@@H](n2c(-c3ccccc3F)nc3cnc(-c4nc[nH]n4)cc32)C1 [Example 178, 6,7-difluoro-2-((1S,3R)-3-(2-(2-fluorophenyl)-6-(1H-1,2,4-triazol-3-yl)-1H-imidazo[4,5-c]pyridin-1-yl)cyclohexyl)isoindolin-1-one]
	100 to 500	> 1000	CN1C[C@@H](NC(=O)c2cc(Cl)ccn2)C[C@@H](n2c(-c3ccccc3F)nc3cnc(-c4nc[nH]n4)cc32)C1 [Example 129, 4-chloro-N-((3S,5R)-5-(2-(2-fluorophenyl)-6-(1H-1,2,4-triazol-3-yl)-1H-imidazo[4,5-c]pyridin-1-yl)-1-methylpiperidin-3-yl)picolinamide]
< 100	< 100		O=C1c2cc(F)ccc2NCN1[C@H]1CCC[C@@H](n2c(-c3ccccc3F)nc3cnc(-c4nc[nH]n4)cc32)C1 [Example 208, 6-fluoro-3-((1S,3R)-3-(2-(2-fluorophenyl)-6-(1H-1,2,4-triazol-3-yl)-1H-imidazo[4,5-c]pyridin-1-yl)cyclohexyl)-2,3-dihydroquinazolin-4(1H)-one]
< 100	< 100		O=C(N[C@H]1CCC[C@@H](n2c(-c3ccccc3OC(F)F)nc3cnc(-c4nc[nH]n4)cc32)C1)c1cc(Cl)ccc1OCCO [compound 73]
100 to 500	< 100		N#Cc1ccc(F)c(C(=O)N[C@H]2CCC[C@@H](n3c(-c4ccccc4F)nc4cnc(-c5nc[nH]n5)cc43)C2)c1 [Example 77, 5-cyano-2-fluoro-N-((1S,3R)-3-(2-(2-fluorophenyl)-6-(1H-1,2,4-triazol-3-yl)-1H-imidazo[4,5-c]pyridin-1-yl)cyclohexyl)benzamide]
< 100	< 100		O=C1c2cc(F)ccc2CN1[C@H]1CCC[C@@H](n2c(-c3ccccc3F)nc3cnc(-n4nccn4)cc32)[C@@H]1O [Example 185, 6-fluoro-2-((1S,2S,3R)-3-(2-(2-fluorophenyl)-6-(2H-1,2,3-triazol-2-yl)-1H-imidazo[4,5-c]pyridin-1-yl)-2-hydroxycyclohexyl)isoindolin-1-one]
< 100	< 100		O=C1c2cc(Cl)ccc2OCN1[C@H]1CCC[C@@H](n2c(-c3ccccc3F)nc3cnc(-c4nc[nH]n4)cc32)[C@@H]1O [Example 213, 6-chloro-3-((1S,2S,3R)-3-(2-(2-fluorophenyl)-6-(1H-1,2,4-triazol-3-yl)-1H-imidazo[4,5-c]pyridin-1-yl)-2-hydroxycyclohexyl)-2,3-dihydro-4H-benzo[e][1,3]oxazin-4-one]
	100 to 500	> 1000	CCN(C)c1nc2cnc(-c3nc[nH]n3)cc2n1[C@@H]1CCC[C@H](NC(=O)c2cc(Cl)ccn2)C1 [Example 21, 4-chloro-N-((1S,3R)-3-(2-(ethyl(methyl)amino)-6-(1H-1,2,4-triazol-3-yl)-1H-imidazo[4,5-c]pyridin-1-yl)cyclohexyl)picolinamide]
< 100	< 100		O=C(N[C@H]1CCC[C@@H](n2c(-c3ccccc3F)nc3cnc(-n4nccn4)cc32)C1)c1cc(Cl)ccc1OCCO [Example 68, 5-chloro-N-((1S,3R)-3-(2-(2-fluorophenyl)-6-(2H-1,2,3-triazol-2-yl)-1H-imidazo[4,5-c]pyridin-1-yl)cyclohexyl)-2-(2-hydroxyethoxy)benzamide]
< 100	< 100		O=C(N[C@H]1CCC[C@@H](n2c(-c3ccccc3F)nc3cnc(-c4nc[nH]n4)cc32)C1)c1cc(Cl)ccc1F [Example 56, 5-chloro-2-fluoro-N-((1S,3R)-3-(2-(2-fluorophenyl)-6-(1H-1,2,4-triazol-3-yl)-1H-imidazo[4,5-c]pyridin-1-yl)cyclohexyl)benzamide]
100 to 500	< 100		O=C1c2cc(F)ccc2CN1[C@H]1CCC[C@@H](n2c(-c3c(F)cccc3F)nc3cnc(-c4ncccn4)cc32)[C@@H]1O [Example 187, 2-((1S,2S,3R)-3-(2-(2,6-difluorophenyl)-6-(pyrimidin-2-yl)-1H-imidazo[4,5-c]pyridin-1-yl)-2-hydroxycyclohexyl)-6-fluoroisoindolin-1-one]
100 to 500	< 100		O=C(N[C@H]1CCC[C@@H](n2c(-c3ccccc3F)nc3ccc(-c4nc[nH]n4)cc32)C1)c1cc(F)ccn1 [Example 226, 4-fluoro-N-((1S,3R)-3-(2-(2-fluorophenyl)-6-(1H-1,2,4-triazol-3-yl)-1H-benzo[d]imid-azol-1-yl)cyclohexyl)picolin-amide]
< 100	< 100		O=C1c2cc(F)ccc2CN1[C@H]1CCC[C@@H](n2c(-c3ccccc3F)nc3cnc(-c4nc[nH]n4)cc32)[C@@H]1O [Example 184, 6-fluoro-2-((1S,2S,3R)-3-(2-(2-fluorophenyl)-6-(1H-1,2,4-triazol-3-yl)-1H-imidazo[4,5-c]pyridin-1-yl)-2-hydroxycyclohexyl)isoindolin-1-one]
100 to 500	< 100		O=C1c2cc(F)ccc2CN1[C@H]1CCC[C@@H](n2c(-c3ccccc3OC(F)F)nc3cnc(-c4nc[nH]n4)cc32)[C@@H]1O [compound 188]
< 100	< 100		O=c1c2cc(F)ccc2ncn1[C@H]1CCC[C@@H](n2c(-c3ccccc3F)nc3cnc(-c4nc[nH]n4)cc32)C1 [Example 209, 6-fluoro-3-((1S,3R)-3-(2-(2-fluorophenyl)-6-(1H-1,2,4-triazol-3-yl)-1H-imidazo[4,5-c]pyridin-1-yl)cyclohexyl)quinazolin-4(3H)-one]
< 100	< 100		CC(C)(O)COc1ccc(Cl)cc1C(=O)N[C@H]1CCC[C@@H](n2c(-c3ccccc3F)nc3cnc(-n4nccn4)cc32)C1 [Example 71, 5-chloro-N-((1S,3R)-3-(2-(2-fluorophenyl)-6-(2H-1,2,3-triazol-2-yl)-1H-imidazo[4,5-c]pyridin-1-yl)cyclohexyl)-2-(2-hydroxy-2-methylpropoxy)benzamide]
500 to 1000	< 100		O=C(N[C@H]1CCC[C@@H](n2c(-c3ccccc3F)nc3cnc(-c4nc[nH]n4)cc32)C1)c1ncccc1F [Example 11, 3-fluoro-N-((1S,3R)-3-(2-(2-fluorophenyl)-6-(1H-1,2,4-triazol-3-yl)-1H-imidazo[4,5-c]pyridin-1-yl)cyclohexyl)picolinamide]
100 to 500	< 100		CN1C[C@H](NC(=O)c2cc(F)ccc2F)C[C@H](n2c(-c3ccccc3F)nc3cnc(-c4nc[nH]n4)cc32)C1 [Example 153, 2,5-difluoro-N-((3R,5S)-5-(2-(2-fluorophenyl)-6-(1H-1,2,4-triazol-3-yl)-1H-imidazo[4,5-c]pyridin-1-yl)-1-methylpiperidin-3-yl)benzamide]

Compound	IC50 [1] [nM]	IC50 [2] [nM]	IC50 [1, 3] [nM]
CC(C)COc1ccc(Cl)cc1C(=O)N[C@H]1CCC[C@@H](n2c(-c3ccccc3C#N)nc3cnc(-c4nc[nH]n4)cc32)C1 [Example 49, 5-chloro-N-((1S,3R)-3-(2-(2-cyanophenyl)-6-(1H-1,2,4-triazol-3-yl)-1H-imidazo[4,5-c]pyridin-1-yl)cyclohexyl)-2-isobutoxybenzamide]	100 to 500	< 100	
